Reference: patent US11021470B2, “2-substituted quinazoline compounds comprising a substituted heterocyclic group and methods of use thereof” (Araxes Pharma LLC, priority 2015, dated 2021)

Assays:
[1] = Whole blood stability, monkey; format: in vitro ADME; settings: 37° C.; for half-life at 5 µM: read-out: Whole Blood Stability (T1/2) (converted)
Description: (§1) Representative compounds of the invention were tested for their whole blood stability as follows:
(§2) Test compounds were prepared as a 500 μM stock solution in DMSO (Adding 10 μl of 10 mM DMSO stock solution to 190 μl of 100% DMSO). Whole blood was thawed on ice. A whole blood plate was prepared by adding 460 μl of the whole blood (different species as needed) to a 96-well in ml deep well plate. The whole blood plate was preincubated at 37° C. for 10 min. 4 μl of compound solution and 396 μl of whole blood was added to the plate and mixed thoroughly. Each sample was aliquoted (30 μl) to the incubation plate (cluster tubes) and quenched at time zero with ice-cold 100% ACN, and the incubation plates were added to the 37° C. incubator (200 μl).
(§3) The time zero sample was maintained at 4° C. until centrifuged. All other samples were quench at different time points (1, 2, 4 hr), vortexed for 30 seconds and centrifuged at 3500 rpm for 15 min at 4° C. 30 μl of supernatant was added to 170 μl 0.1% FA aqueous solution and the sample was analyzes by LC/MS/MS.

[2] = Whole blood stability, dog; format: in vitro ADME; settings: 37° C.; for half-life at 5 µM: read-out: Whole Blood Stability (T1/2) (converted)
Description: as §1, §2, §3

[3] = target: T1, KRAS G12C 1-169, his-tagged protein, GDP-loaded (Homo sapiens, UniProt P01116, G12C); experiment: KRAS G12C covalent binding (% modification) by mass spectrometry, ten or three minute incubation
T1 construct: KRAS G12C 1-169, his-tagged protein, GDP-loaded
Method in brief: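 GDP-loaded protein in 20 mM Hepes, 150 mM NaCl, 1 mM MgCl2 was incubated with compound (final 100, 30 or 10 μM; 2% DMSO) at room temperature, then quenched with formic acid. Intact-protein LC-MS with charge-envelope deconvolution gave masses and intensities of modified and unmodified species.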

[4] = covalent binding to KRAS G12C after a ten minute incubation period
[5] = covalent binding to KRAS G12C, % modification after a three minute incubation period

C=CC(=O)N1CCN(c2nc(OCCN3CC(F)(F)C3)nc3c(F)c(-c4c(O)cccc4F)c(Cl)cc23)CC1 [C, reference compound]
half-life at 5 µM [1]: 0.2 h | half-life at 5 µM [2]: 0.6 h

C=CC(=O)N1C[C@H](C)N(c2nc(OCCN(CC)CC)nc3c(F)c(-c4c(O)cccc4F)c(Cl)cc23)C[C@H]1C (atropisomer, axis not shown) [Compound 75, 1-((2R,5S)-4-((S)-6-chloro-2-(2-(diethylamino)ethoxy)-8-fluoro-7-(2-fluoro-6-hydroxyphenyl)quinazolin-4-yl)-2,5-dimethylpiperazin-1-yl)prop-2-en-1-one]
half-life at 5 µM [1]: 3.9 h | half-life at 5 µM [2]: 4.8 h

C=CC(=O)N1C[C@H](C)N(c2nc(OCCN3CC(F)(F)C3)nc3c(F)c(-c4c(O)cccc4F)c(Cl)cc23)C[C@H]1C [Compound 38, 1-((2R,5S)-4-(6-chloro-2-(2-(3,3-difluoroazetidin-1-yl)ethoxy)-8-fluoro-7-(2-fluoro-6-hydroxyphenyl)quinazolin-4-yl)-2,5-dimethylpiperazin-1-yl)prop-2-en-1-one]
Whole Blood Stability (T1/2) [1]: 7.8 h | Binding % [3, 4]: +++ (+++ indicates binding activity greater than 90%) | half-life at 5 µM [2]: 3 h

C=CC(=O)N1CCN(c2nc(OCCN(CC)CC)nc3c(F)c(-c4c(O)cccc4F)c(Cl)cc23)CC1 [A, reference compound]
half-life at 5 µM [1]: 0.1 h | half-life at 5 µM [2]: 0.6 h

C=CC(=O)N1[C@H](C)CN(c2nc(N3CC(N(C)C)C3)nc3c(F)c(-c4c(O)cccc4F)c(Cl)cc23)C[C@@H]1C [Compound 68, 1-((2R,6S)-4-((R)-6-chloro-2-(3-(dimethylamino)azetidin-1-yl)-8-fluoro-7-(2-fluoro-6-hydroxyphenyl)quinazolin-4-yl)-2,6-dimethylpiperazin-1-yl)prop-2-en-1-one]
half-life at 5 µM [1]: 1 h | half-life at 5 µM [2]: 1.6 h

C=CC(=O)N1CCN(c2nc(OCCN3CC(F)(F)C3)nc3c(F)c(-c4c(O)cccc4F)c(Cl)cc23)C[C@H]1C (atropisomer, axis not shown) [Compound 63, 1-((R)-4-((S)-6-chloro-2-(2-(3,3-difluoroazetidin-1-yl)ethoxy)-8-fluoro-7-(2-fluoro-6-hydroxyphenyl)quinazolin-4-yl)-2-methylpiperazin-1-yl)prop-2-en-1-one]
half-life at 5 µM [1]: 1.2 h | half-life at 5 µM [2]: 1.3 h

C=CC(=O)N1C[C@H](C)N(c2nc(N3CC(N(C)C)C3)nc3c(F)c(-c4c(C)ccc5cn[nH]c45)c(Cl)cc23)C[C@H]1C (atropisomer, axis not shown) [Compound 72, 1-((2R,5S)-4-((R)-6-chloro-2-(3-(dimethylamino)azetidin-1-yl)-8-fluoro-7-(6-methyl-1H-indazol-7-yl)quinazolin-4-yl)-2,5-dimethylpiperazin-1-yl)prop-2-en-1-one]
Whole Blood Stability (T1/2) [1]: 3.9 h | Binding % [3, 4]: +++ (+++ indicates binding activity greater than 90%) | Whole Blood Stability (T1/2) [2]: 5.95 h

C=CC(=O)N1CCN(c2nc(N3CC(N(C)C)C3)nc3c(F)c(-c4c(O)cccc4F)c(Cl)cc23)C[C@H]1C (atropisomer, axis not shown) [Compound 60, 1-((R)-4-((S)-6-chloro-2-(3-(dimethylamino)azetidin-1-yl)-8-fluoro-7-(2-fluoro-6-hydroxyphenyl)quinazolin-4-yl)-2-methylpiperazin-1-yl)prop-2-en-1-one]
half-life at 5 µM [1]: 1.45 h | half-life at 5 µM [2]: 2.3 h

C=CC(=O)N1CCN(c2nc(N3CC(N(C)C)C3)nc3c(F)c(-c4c(C)ccc5cn[nH]c45)c(Cl)cc23)C[C@H]1C (atropisomer, axis not shown) [Compound 70, 1-((R)-4-((R)-6-chloro-2-(3-(dimethylamino)azetidin-1-yl)-8-fluoro-7-(6-methyl-1H-indazol-7-yl)quinazolin-4-yl)-2-methylpiperazin-1-yl)prop-2-en-1-one]
half-life at 5 µM [1]: 1.3 h | half-life at 5 µM [2]: 3 h

C=CC(=O)N1C[C@H](C)N(c2nc(N3CC(N(C)C)C3)nc3c(F)c(-c4c(O)cccc4F)c(Cl)cc23)C[C@H]1C (atropisomer, axis not shown) [Compound 52, 1-((2R,5S)-4-((S)-6-chloro-2-(3-(dimethylamino)azetidin-1-yl)-8-fluoro-7-(2-fluoro-6-hydroxyphenyl)quinazolin-4-yl)-2,5-dimethylpiperazin-1-yl)prop-2-en-1-one]
half-life at 5 µM [1]: 6.8 h | Binding % [3, 4]: +++ (+++ indicates binding activity greater than 90%) | half-life at 5 µM [2]: 5.1 h

C=CC(=O)N1CCN(c2nc(N3CC(N(C)C)C3)nc3c(F)c(-c4c(O)cccc4F)c(Cl)cc23)CC1 [B, reference compound]
half-life at 5 µM [1]: 0.1 h | half-life at 5 µM [2]: 0.7 h

C=CC(=O)N1CCN(c2nc(N3CC(N(C)C)C3)nc3c(F)c(-c4c(O)cccc4F)c(C(F)(F)F)cc23)C[C@H]1C (atropisomer, axis not shown) [Compound 271, 1-((R)-4-(2-(3-(dimethylamino)azetidin-1-yl)-8-fluoro-7-((S)-2-fluoro-6-hydroxyphenyl)-6-(trifluoromethyl)quinazolin-4-yl)-2-methylpiperazin-1-yl)prop-2-en-1-one]
Binding % [3, 5]: + (+ indicates binding activity greater than 0% and up to 50%)

C=CC(=O)N1C[C@H](C)N(c2nc(N3CC(N(C)C)C3)nc3c(F)c(-c4c(O)cccc4F)c(Cl)cc23)C[C@H]1C [Compound 24, 1-((2R,5S)-4-(6-chloro-2-(3-(dimethylamino)azetidin-1-yl)-8-fluoro-7-(2-fluoro-6-hydroxyphenyl)quinazolin-4-yl)-2,5-dimethylpiperazin-1-yl)prop-2-en-1-one]
Binding % [3, 4]: ++ (++ indicates binding activity from 50 to 90%)

C=CC(=O)N1C[C@H](C)N(c2nc(N3CC(N(C)C)C3)nc3c(Cl)c(-c4c(O)cccc4F)c(Cl)cc23)C[C@H]1C [Compound 251, 1-((2R,5S)-4-(6,8-dichloro-2-(3-(dimethylamino)azetidin-1-yl)-7-(2-fluoro-6-hydroxyphenyl)quinazolin-4-yl)-2,5-dimethylpiperazin-1-yl)prop-2-en-1-one]
Binding % [3, 5]: ++ (++ indicates binding activity from 50 to 90%)
